What was measured:
[1] = same polydimethylsiloxane devices; stated as known; cited from earlier work
[2] = Selective transfer of molecules through ultrahigh Dk lens material; format: physicochemical; conditions: ultrahigh Dk lens material selective to molecules by size
Text: The inventors discovered an ultrahigh Dk lens material that is selective to the transfer of molecules based on their size. […] The material has value in reverse osmosis systems because of its selective permeability. Its transmissibility may be regulated by the thickness profile of the ophthalmic device or may be further regulated by the addition of surface modification or fillers within the substrate of the material that produce selective permeability related to polar surface area or the molecular weight of a permeant.

[3] = Retention of permeants under polydimethylsiloxane devices during wearing; conditions: devices 14.3 mm overall diameter, thickness greater than 0.400 mm; not found in device substrate after removal or in pre device tear film during wearing

Structure (SMILES) | transmissibility through the devices [1] | transfer through the material [2] | retention of permeant behind the device (permeation through device) [3]
CCO [ethanol] | high transmissibility | – | –
O=O [oxygen] | high transmissibility | will transfer | –
[Cl-].[Na+] [sodium chloride] | – | will not transfer | –
O=C([O-])c1ccccc1-c1c2ccc(=O)cc-2oc2cc([O-])ccc12.[Na+].[Na+] [sodium fluorescein] | – | – | retained in the post lens tear space
O [water vapor] | high transmissibility | will transfer | –

— US20250255771A1, “OPHTHALMIC DEVICES FOR MANAGEMENT OF WATER VAPOR TRANSMISSIBILITY, DELIVERY OF PHARMACEUTICAL AGENTS, AND NON-SURGICAL CORNEAL RESHAPING” (OCULAR SURFACE INNOVATIONS INC., priority 2024, published 2025)
